*1 amine or outer side, *2 acyl side, *3 side chain or, on linkers, in order; H or OH if unused. Where a SMILES comes first, the peptide text is derived from it. Bridges are numbered along the chain shown (N, C = ends). [ ]: non-standard residue; d: D form. Acbc(cis-1,3) = O=C([C@H]1C[C@@H](N[*:1])C1)[*:2]; X1 = O=C([C@@H]1CCC[C@@H]1N[*:1])[*:2]; Orn = NCCC[C@H](N)C(=O)O
How the values were obtained:
[1] = target: T1, Fc-tagged human IFNGR1 (Homo sapiens, UniProt P15260); assay: Binding kinetics and affinity to IFNGR1 by surface plasmon resonance (SPR); settings: SPR, 25 °C, 1:1 binding model; for Kd: read-out: KD; for kon: single-cycle kinetics, read-out: ka
T1 construct: purchased ACROBiosystems
T1 sequence (P15260 18-489): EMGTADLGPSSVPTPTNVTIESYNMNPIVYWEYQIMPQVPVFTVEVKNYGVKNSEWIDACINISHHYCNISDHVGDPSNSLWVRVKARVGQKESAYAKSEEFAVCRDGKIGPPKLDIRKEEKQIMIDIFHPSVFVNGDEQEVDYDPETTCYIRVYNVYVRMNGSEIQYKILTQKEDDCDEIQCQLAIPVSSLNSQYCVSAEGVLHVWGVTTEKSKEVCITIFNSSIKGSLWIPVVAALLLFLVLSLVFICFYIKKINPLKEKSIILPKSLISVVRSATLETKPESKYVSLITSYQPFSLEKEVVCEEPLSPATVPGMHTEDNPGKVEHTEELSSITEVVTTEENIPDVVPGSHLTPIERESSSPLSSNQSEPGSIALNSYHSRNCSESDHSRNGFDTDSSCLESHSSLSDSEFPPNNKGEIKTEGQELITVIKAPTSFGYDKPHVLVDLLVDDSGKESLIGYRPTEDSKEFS
Method in brief: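 Fc-tagged IFNGR1 captured on a protein G chip (1,200–1,600 RU), 25 °C, running buffer 10 mM Tris-HCl pH 8.0, 150 mM NaCl, 0.05% Tween 20, 0.1% DMSO. Single-cycle kinetics with five twofold-diluted peptide concentrations at 30 μL/min. Sensorgrams fitted to a 1:1 binding model for kinetic constants and affinity.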

[2] = target: T2, IFN-γ/IFNGR1 protein–protein interaction (Homo sapiens, UniProt P15260); assay: IFNGR1 inhibition assay using AlphaLISA; assay type: biochemical; settings: four-parameter dose–response fit, n = 3
T2 construct: purchased ACROBiosystems
T2 sequence (P15260 18-245 limits assumed): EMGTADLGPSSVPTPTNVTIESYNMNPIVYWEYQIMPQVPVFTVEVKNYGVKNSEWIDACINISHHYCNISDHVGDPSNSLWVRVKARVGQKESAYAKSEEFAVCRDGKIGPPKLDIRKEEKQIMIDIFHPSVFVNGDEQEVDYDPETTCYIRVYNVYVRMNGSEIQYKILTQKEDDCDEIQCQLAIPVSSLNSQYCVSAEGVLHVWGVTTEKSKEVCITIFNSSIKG
Protocol: IFNGR1 inhibition assay using AlphaLISA
The inhibitory activity of peptides against IFN-γ/IFNGR1 protein–protein interaction (PPI) was determined by AlphaLISA.5 Peptides, proteins, and beads were diluted in AlphaLISA immunoassay buffer (PerkinElmer, AL000C). 3.6 μL of 5 nM Fc-tagged IFNGR1 and 3.6 μL of synthetic peptides were mixed in AlphaPlate-384 Shallow Well (PerkinElmer) and preincubated at 25 °C for 10 min. 3.6 μL of 15 nM biotin-tagged IFN-γ was then added to the mix and incubated at 25 °C for 20 min. 3.6 μL each human IgG acceptor beads (PerkinElmer) and streptavidin donor beads (PerkinElmer) were added to the above mix and incubated at 25 °C for 30 min in dark place. Emission at 615 nm was measured […]
by EnSpire Multimode Plate Reader (PerkinElmer). The fraction of bound IFN-γ/IFNGR1 was calculated by the intensity of emission in the presence of peptide divided by that in the absence of […]
peptide. […]
Puromycin. Normocin, Blasticidin, Zeocin, and Puromycin were excluded when conducting the experiments. To evaluate the cellular activity of peptides, peptide mixtures were added to 50,000 cells/well in a flat-bottom 96-well plate and pre-incubated for 30 min at 37 °C before stimulation.
Subsequently, 1 ng/mL of recombinant IFN-γ (InvivoGen) was added to each well in a final reaction volume of 200 μL, followed by incubation for 20 h at 37 °C. 20 μL of supernatants from the induced cells was added to 180 μL Q U A N T I-Blue TM solution (InvivoGen). After further incubation for 3 h at 37 °C, the expression levels of the secreted embryonic alkaline phosphatase (SEAP) were determined by reading the O.D. at 650 nm on a Tecan M1000 PRO microplate reader (Tecan Group) and normalized to the non-treated well. IC50 value was analyzed by a normalized dose-response curve fitting by using GraphPad Prism 9.
HEK-DualTM IFN-γ cells were used for the cell viability assay. 10,000 cells/well were added to each well in a flat-bottom 96-well plate. After 24 h, peptide mixtures were added to each well in a final volume of 100 μL. After further incubation for 24 h, 10 μL CCK-8 reagent (Dojindo) was added to […]

[3] = Serum stability assay (LC/MS); assay type: in vitro ADME, human; settings: human serum, 37 °C, LC/MS, relative to internal standard peptide, n = 3; for half-life: human, read-out: half-life in human serum (t1/2) (converted)
Protocol: Binding affinities of IA1 and IA2 against IFNGR1 were evaluated by surface plasmon resonance (SPR) (Table 1 and SI Figure S6A). […] To investigate the contribution of the N-terminal [yVPβ^1RR] motif and β^1 residue in IA1, three scrambled peptides IA1s1–3 and a variant IA1β^14A were synthesized and evaluated. […] We next evaluated inhibitory activities of IA1 and IA2 against the ligand–receptor PPI between IFN-γ and IFNGR1 using AlphaLISA (Table 1 and SI Figure S7).[37] […] We also determined the serum half-lives of IA1 and IA2, considering peptidase resistance as an important factor for therapeutic peptides.[24] A sample peptide and a peptidase-resistant internal standard peptide were coincubated in human serum at 37 °C, and the relative amount of the remaining sample peptide was estimated by LC/MS. […]
10–200 μM synthetic peptide and 5 μM serum-resistant internal standard peptide consisting only of D-amino acids (NH2-PEG5-wstndwstnd-PEG5-CONH2)3 were mixed and incubated in human serum (Cosmo Bio, 12181201) at 37 °C for up to 120 h. At each time point, 4 μL of the mixture was removed and quenched by adding 12 μl methanol. Following centrifugation (15,000 g, 4 °C, 5 min), 10 μL of the supernatant was mixed with 40 μl of 1% (v/v) TFA. Following centrifugation (15,000 g, 4 °C, 5 min), the supernatant was collected for LC/MS analysis, which used a reverse-phase column (ACQUITY UPLC BEH C18, 1.7 μm, 2.1 × 150 mm; Waters) and a Xevo G2-XS QTof system (Waters) with a linear gradient from 1% B to 61% B. Buffer A was water with 0.1% (v/v) formic acid; buffer B was acetonitrile with 0.1% (v/v) formic acid. The percentages of remaining peptides were determined by the peak area integration of the chromatograms. For tandem mass spectrometry, MS/MS spectra were acquired with a 0.2 s scan time, with 10−30 eV collision energy. The obtained LC/MS data was analyzed using MassLynx 4.1 (Waters). […]

[4] = system: HEK-Dual IFN-γ cells; assay: Cell viability assay (CCK-8); settings: up to 50 μM, 24 h incubation

Row | Compound | Kd [1] [nM] | kon [1] [M⁻¹ s⁻¹] | IC50 [2] [nM] | half-life [3] [h] | cytotoxicity [4] | half-life in human serum (t1/2) [3] [h]
1 | CC(C)[C@@H]1NC(=O)[C@@H](Cc2ccc(O)cc2)NC(=O)CSC[C@H](C(N)=O)NC(=O)[C@H](CC(N)=O)NC(=O)[C@H](Cc2c[nH]cn2)NC(=O)[C@H](CCCNC(=N)N)NC(=O)[C@H]2C[C@H](C2)NC(=O)[C@H]([C@@H](C)O)NC(=O)[C@H](Cc2c[nH]cn2)NC(=O)[C@@H]2CCCN2C(=O)[C@H](CO)NC(=O)[C@H](CCCNC(=N)N)NC(=O)[C@H](CCCNC(=N)N)NC(=O)[C@@H]2CCC[C@@H]2NC(=O)[C@@H]2CCCN2C1=O [IB5γ^211γ^1, ^AcyVPβ^1RRSPHTγ^1RHNc-NH2] ({CH2CO}-[dY]VP[X1]RRSPHT[Acbc(cis-1,3)]RHN[dC]-NH2; thioether N-15) | 17 ± 5 | 320000 ± 50000 | 27 ± 4 | 34 ± 2 | none of them exhibited notable cytotoxicity up to 50 μM | 
2 | CC(C)[C@@H]1NC(=O)[C@@H](Cc2ccc(O)cc2)NC(=O)CSC[C@H](C(N)=O)NC(=O)[C@H](CC(N)=O)NC(=O)[C@H]2C[C@H](C2)NC(=O)[C@H](CCCN)NC(=O)[C@@H]2CCCN2C(=O)[C@H]([C@@H](C)O)NC(=O)[C@H](CCCN)NC(=O)[C@H](CCCN)NC(=O)[C@H](CO)NC(=O)[C@H](CCCNC(=N)N)NC(=O)[C@H](CCCNC(=N)N)NC(=O)[C@@H]2CCC[C@@H]2NC(=O)[C@@H]2CCCN2C1=O [IB4γ^213γ^1Orn, ^AcyVPβ^1RRSOOTPOγ^1Nc-NH2] ({CH2CO}-[dY]VP[X1]RRS[Orn][Orn]TP[Orn][Acbc(cis-1,3)]N[dC]-NH2; thioether N-15) | 12 ± 1 | 4.7e+06 ± 600000 | 15 ± 5 | 49 ± 4 | none of them exhibited notable cytotoxicity up to 50 μM | 
3 | CC(C)[C@@H]1NC(=O)[C@@H](Cc2ccc(O)cc2)NC(=O)CSC[C@H](C(N)=O)NC(=O)[C@H](CCCNC(=N)N)NC(=O)[C@H](CO)NC(=O)[C@H](CCCNC(=N)N)NC(=O)[C@H](Cc2c[nH]cn2)NC(=O)CNC(=O)[C@H](C)NC(=O)[C@H](Cc2c[nH]cn2)NC(=O)[C@H](CC(N)=O)NC(=O)[C@H](CCCNC(=N)N)NC(=O)[C@H](CCCNC(=N)N)NC(=O)[C@@H]2CCC[C@@H]2NC(=O)[C@H](C)NC1=O [IB1γ^19A, ^AcyVAβ^1RRNHA GHRSRc-NH2] ({CH2CO}-[dY]VA[X1]RRNHAGHRSR[dC]-NH2; thioether N-15) | 9.5 ± 4 | 110000 ± 20000 | 11 ± 4 | 0.17 ± 0.01 |  | 
4 | CC(C)[C@@H]1NC(=O)[C@@H](Cc2ccc(O)cc2)NC(=O)CSC[C@H](C(N)=O)NC(=O)[C@H](CC(N)=O)NC(=O)[C@H]2C[C@H](C2)NC(=O)[C@H](CCCNC(=N)N)NC(=O)[C@@H]2CCCN2C(=O)[C@H]([C@@H](C)O)NC(=O)[C@H](CCCNC(=N)N)NC(=O)[C@H](CCCNC(=N)N)NC(=O)[C@H](CO)NC(=O)[C@H](CCCNC(=N)N)NC(=O)[C@H](CCCNC(=N)N)NC(=O)[C@@H]2CCC[C@@H]2NC(=O)[C@@H]2CCCN2C1=O [IB4γ^213γ^1, ^AcyVPβ^1RRSRRTPRγ^1Nc-NH2] ({CH2CO}-[dY]VP[X1]RRSRRTPR[Acbc(cis-1,3)]N[dC]-NH2; thioether N-15) | 6.1 ± 2.2 | 210000 ± 70000 | 10 ± 1 | 0.37 |  | 0.71 ± 0.04
5 | CC(C)[C@@H]1NC(=O)[C@@H](Cc2ccc(O)cc2)NC(=O)CSC[C@H](C(N)=O)NC(=O)[C@H](CC(N)=O)NC(=O)[C@H](Cc2c[nH]cn2)NC(=O)[C@H](CCCNC(=N)N)NC(=O)[C@H](C)NC(=O)[C@H]([C@@H](C)O)NC(=O)[C@H](Cc2c[nH]cn2)NC(=O)[C@@H]2CCCN2C(=O)[C@H](CO)NC(=O)[C@H](CCCNC(=N)N)NC(=O)[C@H](CCCNC(=N)N)NC(=O)[C@@H]2CCC[C@@H]2NC(=O)[C@@H]2CCCN2C1=O [IB5γ^211A, ^AcyVPβ^1RRSPHTA RHNc-NH2] ({CH2CO}-[dY]VP[X1]RRSPHTARHN[dC]-NH2; thioether N-15) | 28 ± 6 | 92000 ± 27000 | 14 ± 1 | 1.8 ± 0.6 |  | 
